The target of test [1] is T1, Kir4.1 (Homo sapiens, UniProt P78508).
T1 sequence (P78508 1-379): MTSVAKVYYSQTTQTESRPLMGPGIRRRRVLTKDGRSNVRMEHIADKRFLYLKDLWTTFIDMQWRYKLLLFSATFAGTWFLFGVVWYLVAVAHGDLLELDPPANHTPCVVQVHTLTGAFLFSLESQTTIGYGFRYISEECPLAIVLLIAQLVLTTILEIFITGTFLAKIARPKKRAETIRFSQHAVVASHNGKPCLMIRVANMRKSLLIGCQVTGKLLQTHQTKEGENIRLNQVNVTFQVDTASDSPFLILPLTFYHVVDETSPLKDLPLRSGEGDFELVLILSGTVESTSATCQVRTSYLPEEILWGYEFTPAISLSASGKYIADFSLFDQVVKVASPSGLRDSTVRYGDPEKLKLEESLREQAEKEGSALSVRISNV
Conditions: Ohno et al., 2007; Wang et al., 2006; Kharade et al., 2018; cited from earlier work.

The test system of test [2] is LHb neurons. It counts as cell-based.

With `COCCCC/C(=N\OCCN)c1ccc(C(F)(F)F)cc1` [fluvoxamine], the “Kir4.1 inhibition (literature statement)” value in test [1] was “inhibit Kir4.1, yet with lower affinity”.

Take `CN(C)CCC=C1c2ccccc2CCc2ccccc21` [amitriptyline]: the “Kir4.1 inhibition (literature statement)” value in test [1] is “inhibit Kir4.1, yet with lower affinity”.

`CNCCCN1c2ccccc2CCc2ccccc21` [desipramine]: in test [1], the “Kir4.1 inhibition (literature statement)” value is reported as “inhibit Kir4.1, yet with lower affinity”.

For `[Ba+2].[Cl-].[Cl-]` [BaCl2], the “firing frequency of bursting neurons” value in test [2] is “dramatic increase”. Moreover, the “RMPs of tonic and burst-firing LHb neurons” value in test [2] (BaCl2 100 μM, about 10 min bath perfusion) was “depolarized”.

As to `CN(C)CCCN1c2ccccc2CCc2ccccc21` [imipramine], in test [1], the “Kir4.1 inhibition (literature statement)” value is “inhibit Kir4.1, yet with lower affinity”.

For `CNCCC(Oc1ccc(C(F)(F)F)cc1)c1ccccc1` (stereo not shown) [fluoxetine], in test [1], the “Kir4.1 inhibition (literature statement)” value is on record as “inhibit Kir4.1, yet with lower affinity”.

In the case of `CNCCC=C1c2ccccc2CCc2ccccc21` [nortriptyline], the “Kir4.1 inhibition (literature statement)” value in test [1] is “inhibit Kir4.1, yet with lower affinity”.

Turning to `CN[C@H]1CC[C@@H](c2ccc(Cl)c(Cl)c2)c2ccccc21` [sertraline], the “Kir4.1 inhibition (literature statement)” value in test [1] was “inhibit Kir4.1, yet with lower affinity”.

Turning to `CC(C)c1ccc(OCC(=O)NC2CC(C)(C)NC(C)(C)C2)c(Br)c1` [VU0134992], the “Kir4.1 inhibition (literature statement)” value in test [1] was “highly selective and specific Kir4.1 inhibitor”.

The record behind these values is patent US11326168B2, “Use of potassium channel inhibitor for treating depression” (ZHEJIANG UNIVERSITY, priority 2017, dated 2022).
